# From PMC7615677 (Science translational medicine, 2023)
# Like-named read-outs stand apart in the source and are kept apart here.
# Assays:
# [1] = In vitro cytotoxicity assays, all cell lines tested; assay type: cell-based; conditions: mouse, human, African green monkey
# [2] = test system: T. brucei brucei (bloodstream form); assay: In vitro activity against other kinetoplastid parasites; assay type: cell-based; conditions: Trypanosoma brucei, one range given for T. brucei brucei and T. b. rhodesiense
# [3] = target: T1, human cytochrome bc1 complex (Homo sapiens, UniProt P00156); assay: Human complex III inhibition assay; assay type: biochemical
# T1 construct: Preparation of mitochondria from a human cell line (THP-1); endogenous in cells; host or cells: THP-1 (human) mitochondria
# Procedure: Preparation of mitochondria from a human cell line (THP-1) was performed following published procedure ([21]). The protocol for the assay has been described in ([22]).
# [4] = Solubility in biorelevant buffers; assay type: physicochemical
# Procedure: The ionization constant (pKa), octanol-pH 7.4 buffer partition coefficient (Log D7.4), solubility in biorelevant buffers (FaSSIF-V2, FeSSIF-V2, FaSSGF and pH 7.4 phosphate buffered saline (PBS)) and Caco-2 permeability were determined according to previously published methods ([10]).
# [5] = Human PK and dose prediction (IVIVE, allometry, GastroPlus PBPK); conditions: plasma; for AUC: read-out: target cumulative total human plasma AUC
# Text: Human plasma clearance was estimated by in vitro/in vivo extrapolation (IVIVE) of data from liver microsomes and allometry using the available in vivo preclinical data. In both cases, renal excretion of unchanged drug was assumed to be negligible (experimentally confirmed in the rat). […] Therefore, the “rule of exponents” was applied and the unbound clearance data were corrected for brain weight ([13]) as described previously ([14]).
# The predicted clearance was input along with the data in Table S16 into a physiologically-based pharmacokinetic (PBPK) model (GastroPlus) to simulate human profiles under different dosing conditions. Given that there was no evidence of renal elimination in rats, it was assumed that clearance occurs solely by hepatic metabolism.
# Human clearance was estimated using in vitro/in vivo extrapolation (IVIVE) of data obtained in liver microsomes and cryopreserved hepatocytes incorporating binding to microsomes and hepatocytes, plasma protein binding and the blood to plasma ratio. Scaling factors were as described previously ([12]) and liver blood flows were from Simcyp, assuming an average human body weight of 50 kg was assumed for the patient population ([12]).
# The human dose predictions were based on PK and PD data in hamsters (best case scenario) and mice (worst case scenario) and unbound plasma concentrations that led to 95% efficacy. Human profiles were simulated at different doses and dosing regimens (qd or bid) over 10-14 days using GastroPlus (version 9.8, Simulations Plus, Inc., Lancaster, CA). The PBPK model used fasted physiological conditions and a 50 kg 30-year-old American male. The Berezhkovskiy perfusion limited model was used for Kp estimation ([30]). The estimated human plasma clearance was input directly into the model with the assumption that elimination occurred only by hepatic metabolism (consistent with data in rats).
# [6] = In vitro cytotoxicity assay; assay type: cell-based; conditions: human, U2OS human osteosarcoma cells
# [7] = test system: HepG2 cells; assay: MitoXpress oxygen consumption assay; assay type: cell-based
# Procedure: Briefly, HepG2 cells were seeded in 96-well plates in 100 μL of complete media and incubated overnight in an incubator set to maintain approximately (37°C and 5% CO2). […] Oligomycin (5 μM), FCCP (1 μM), or antimycin A or antimycin A/Rotenone (1 μM) were added to additional wells as positive controls. Prewarmed (37°C) 100% mineral oil (100 μL) was immediately added to all wells. The assay plates were transferred to a Perkin Elmer Wallac VICTOR3 System reader for time-resolved fluorescence measurements. Fluorescence (excitation 340 nm/emission 642 nm) was measured every two minutes for approximately 1-2 hrs (or until signal plateau/saturation is reached).
# The dual-read time-resolved (T1 = 30 μs and T2 = 70 μs) fluorescence intensity readings (R1 and R2) from the Perkin Elmer Wallac VICTOR3 system (Perkin Elmer) were converted to lifetime fluorescence values as per guidelines detailed in the Agilent MitoXpress Xtra Oxygen Consumption Assay Manual. Calculation of the slope translates to oxygen consumption rate (OCR). Oxygen consumption rate was multiplied by 60 to determine the slope/hour for each assay well.
# [8] = In vitro cytotoxicity assay; assay type: cell-based; conditions: rat, L-6 rat skeletal myoblasts
# [9] = target: T2, OAT1 (Homo sapiens, UniProt Q4U2R8); assay: Drug transporter inhibition panel; assay type: in vitro ADME; conditions: 1 and 10 μM
# T2 construct: Eurofins
# Text: (§1) Listed values represent the percent change relative to the DMSO control activity. When an IC50 had to be determined, eight different concentrations were included. All values are the mean of assay readout duplicates.
# [10] = target: T3, OCT2 (Homo sapiens, UniProt O15244); assay: Drug transporter inhibition panel; assay type: in vitro ADME; conditions: 1 and 10 μM
# T3 construct: Eurofins
# Text: as §1
# [11] = target: BCRP (Homo sapiens, UniProt Q9UNQ0); assay: Drug transporter inhibition panel; assay type: in vitro ADME; conditions: 1 and 10 μM
# Text: as §1
# [12] = target: T4, OATP1B1 (Homo sapiens, UniProt Q9Y6L6); assay: Drug transporter inhibition panel; assay type: in vitro ADME
# T4 construct: Eurofins
# Text: as §1
# [13] = target: T5, MATE2-K (Homo sapiens, UniProt Q86VL8); assay: Drug transporter inhibition panel; assay type: in vitro ADME
# T5 construct: Eurofins
# Text: as §1
# [14] = target: T6, OCT1 (Homo sapiens, UniProt O15245); assay: Drug transporter inhibition panel; assay type: in vitro ADME; conditions: 1 and 10 μM
# T6 construct: Eurofins
# Text: as §1
# [15] = target: T7, OAT3 (Homo sapiens, UniProt Q8TCC7); assay: Drug transporter inhibition panel; assay type: in vitro ADME; conditions: 1 and 10 μM
# T7 construct: Eurofins
# Text: as §1
# [16] = target: BSEP (Homo sapiens, UniProt O95342); assay: Drug transporter inhibition panel; assay type: in vitro ADME; conditions: 1 and 10 μM
# Text: as §1
# [17] = target: T8, OATP1B3 (Homo sapiens, UniProt Q9NPD5); assay: Drug transporter inhibition panel; assay type: in vitro ADME
# T8 construct: Eurofins
# Text: as §1
# T7 sequence (Q8TCC7 whole entry): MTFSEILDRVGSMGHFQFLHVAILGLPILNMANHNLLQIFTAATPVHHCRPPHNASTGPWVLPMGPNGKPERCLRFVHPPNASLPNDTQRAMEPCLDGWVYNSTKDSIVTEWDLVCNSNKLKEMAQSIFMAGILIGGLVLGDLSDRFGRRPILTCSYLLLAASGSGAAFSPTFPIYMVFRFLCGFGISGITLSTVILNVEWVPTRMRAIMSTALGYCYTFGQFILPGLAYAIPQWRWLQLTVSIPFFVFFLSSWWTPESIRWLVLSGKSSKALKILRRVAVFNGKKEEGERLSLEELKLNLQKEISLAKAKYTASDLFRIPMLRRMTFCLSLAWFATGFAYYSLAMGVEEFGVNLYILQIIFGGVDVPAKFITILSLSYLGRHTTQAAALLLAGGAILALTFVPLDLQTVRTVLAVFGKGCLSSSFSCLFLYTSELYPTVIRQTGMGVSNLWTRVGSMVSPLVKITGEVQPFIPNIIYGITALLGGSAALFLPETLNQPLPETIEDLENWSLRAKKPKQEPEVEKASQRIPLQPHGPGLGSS
# T2 sequence (Q4U2R8 whole entry): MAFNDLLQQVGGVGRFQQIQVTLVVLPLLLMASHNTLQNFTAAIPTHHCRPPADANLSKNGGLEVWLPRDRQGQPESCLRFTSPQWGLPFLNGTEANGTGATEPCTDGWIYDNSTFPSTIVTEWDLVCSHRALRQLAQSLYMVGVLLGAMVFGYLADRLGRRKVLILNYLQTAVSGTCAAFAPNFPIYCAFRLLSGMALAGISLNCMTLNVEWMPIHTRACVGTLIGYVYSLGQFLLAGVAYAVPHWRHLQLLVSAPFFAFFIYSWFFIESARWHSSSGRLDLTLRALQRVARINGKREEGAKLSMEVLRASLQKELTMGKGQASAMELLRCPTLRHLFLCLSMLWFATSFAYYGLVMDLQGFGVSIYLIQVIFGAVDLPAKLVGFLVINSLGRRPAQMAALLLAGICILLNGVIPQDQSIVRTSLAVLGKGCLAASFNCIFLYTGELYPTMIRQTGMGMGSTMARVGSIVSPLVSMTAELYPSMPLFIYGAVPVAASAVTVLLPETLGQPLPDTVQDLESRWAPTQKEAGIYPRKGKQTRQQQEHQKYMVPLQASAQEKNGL
# T3 sequence (O15244 whole entry): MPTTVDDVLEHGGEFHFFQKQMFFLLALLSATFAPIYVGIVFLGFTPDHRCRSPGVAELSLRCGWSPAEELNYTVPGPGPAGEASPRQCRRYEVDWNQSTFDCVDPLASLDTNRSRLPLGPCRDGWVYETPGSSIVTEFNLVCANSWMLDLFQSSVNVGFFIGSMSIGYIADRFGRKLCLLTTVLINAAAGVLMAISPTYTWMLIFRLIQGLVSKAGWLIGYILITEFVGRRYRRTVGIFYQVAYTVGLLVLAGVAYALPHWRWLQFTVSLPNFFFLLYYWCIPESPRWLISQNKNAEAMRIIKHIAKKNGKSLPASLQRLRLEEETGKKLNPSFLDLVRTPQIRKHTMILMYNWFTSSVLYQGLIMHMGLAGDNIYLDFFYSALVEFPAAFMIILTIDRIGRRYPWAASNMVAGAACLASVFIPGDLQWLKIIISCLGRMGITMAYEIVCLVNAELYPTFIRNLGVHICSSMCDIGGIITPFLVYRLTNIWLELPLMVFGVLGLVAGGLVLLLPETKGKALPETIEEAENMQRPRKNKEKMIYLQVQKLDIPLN
# T4 sequence (Q9Y6L6 whole entry): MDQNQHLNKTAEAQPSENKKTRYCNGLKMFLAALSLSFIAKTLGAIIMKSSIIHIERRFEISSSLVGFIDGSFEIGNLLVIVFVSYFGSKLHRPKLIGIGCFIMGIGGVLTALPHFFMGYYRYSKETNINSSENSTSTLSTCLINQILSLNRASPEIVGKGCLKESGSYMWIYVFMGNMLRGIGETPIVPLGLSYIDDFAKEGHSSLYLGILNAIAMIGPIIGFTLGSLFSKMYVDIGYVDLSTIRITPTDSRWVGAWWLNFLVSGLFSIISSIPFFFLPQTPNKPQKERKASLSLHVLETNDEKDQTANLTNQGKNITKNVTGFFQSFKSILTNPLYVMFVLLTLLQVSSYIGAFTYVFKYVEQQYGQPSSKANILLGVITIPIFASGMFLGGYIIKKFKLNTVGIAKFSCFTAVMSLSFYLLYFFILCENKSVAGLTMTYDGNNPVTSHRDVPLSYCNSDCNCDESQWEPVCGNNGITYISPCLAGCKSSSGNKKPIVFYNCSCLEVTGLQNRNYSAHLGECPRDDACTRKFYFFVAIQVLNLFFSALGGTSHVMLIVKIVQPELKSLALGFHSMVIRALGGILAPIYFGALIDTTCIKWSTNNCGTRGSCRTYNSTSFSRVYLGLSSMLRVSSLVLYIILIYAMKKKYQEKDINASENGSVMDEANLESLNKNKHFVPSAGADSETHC
# T6 sequence (O15245 whole entry): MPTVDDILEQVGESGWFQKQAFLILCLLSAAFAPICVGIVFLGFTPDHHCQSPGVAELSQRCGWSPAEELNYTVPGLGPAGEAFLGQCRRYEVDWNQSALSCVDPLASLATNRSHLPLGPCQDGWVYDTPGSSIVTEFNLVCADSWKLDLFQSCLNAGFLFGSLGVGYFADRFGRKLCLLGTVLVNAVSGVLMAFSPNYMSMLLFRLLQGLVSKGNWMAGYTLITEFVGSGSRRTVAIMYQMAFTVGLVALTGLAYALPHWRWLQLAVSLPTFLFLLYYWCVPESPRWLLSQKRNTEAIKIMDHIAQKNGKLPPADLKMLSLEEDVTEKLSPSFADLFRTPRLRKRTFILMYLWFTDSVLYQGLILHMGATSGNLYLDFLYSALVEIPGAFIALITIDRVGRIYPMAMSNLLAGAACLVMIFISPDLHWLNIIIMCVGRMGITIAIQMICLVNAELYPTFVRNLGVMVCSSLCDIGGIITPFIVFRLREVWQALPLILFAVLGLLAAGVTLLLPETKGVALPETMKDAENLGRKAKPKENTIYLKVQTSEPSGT
# BCRP, sequence (Q9UNQ0 whole entry, species assumed): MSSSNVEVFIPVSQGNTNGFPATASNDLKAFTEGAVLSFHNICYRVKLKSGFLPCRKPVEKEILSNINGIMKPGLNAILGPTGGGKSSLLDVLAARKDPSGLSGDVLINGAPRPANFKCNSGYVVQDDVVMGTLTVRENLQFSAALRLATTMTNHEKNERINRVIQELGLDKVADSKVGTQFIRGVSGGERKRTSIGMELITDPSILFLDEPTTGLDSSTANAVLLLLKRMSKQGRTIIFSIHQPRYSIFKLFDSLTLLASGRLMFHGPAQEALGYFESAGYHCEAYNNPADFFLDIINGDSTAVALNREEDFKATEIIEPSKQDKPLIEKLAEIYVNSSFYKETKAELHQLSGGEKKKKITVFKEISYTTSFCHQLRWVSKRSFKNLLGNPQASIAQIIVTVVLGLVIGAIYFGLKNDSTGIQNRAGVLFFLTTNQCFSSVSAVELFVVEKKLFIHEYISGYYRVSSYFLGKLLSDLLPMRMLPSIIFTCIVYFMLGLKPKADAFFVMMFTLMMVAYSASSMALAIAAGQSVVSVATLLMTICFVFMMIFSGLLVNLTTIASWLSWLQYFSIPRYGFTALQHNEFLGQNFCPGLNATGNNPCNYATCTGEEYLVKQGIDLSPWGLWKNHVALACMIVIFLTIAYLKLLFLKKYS
# T5 sequence (Q86VL8 1-566 isoform Q86VL8-3): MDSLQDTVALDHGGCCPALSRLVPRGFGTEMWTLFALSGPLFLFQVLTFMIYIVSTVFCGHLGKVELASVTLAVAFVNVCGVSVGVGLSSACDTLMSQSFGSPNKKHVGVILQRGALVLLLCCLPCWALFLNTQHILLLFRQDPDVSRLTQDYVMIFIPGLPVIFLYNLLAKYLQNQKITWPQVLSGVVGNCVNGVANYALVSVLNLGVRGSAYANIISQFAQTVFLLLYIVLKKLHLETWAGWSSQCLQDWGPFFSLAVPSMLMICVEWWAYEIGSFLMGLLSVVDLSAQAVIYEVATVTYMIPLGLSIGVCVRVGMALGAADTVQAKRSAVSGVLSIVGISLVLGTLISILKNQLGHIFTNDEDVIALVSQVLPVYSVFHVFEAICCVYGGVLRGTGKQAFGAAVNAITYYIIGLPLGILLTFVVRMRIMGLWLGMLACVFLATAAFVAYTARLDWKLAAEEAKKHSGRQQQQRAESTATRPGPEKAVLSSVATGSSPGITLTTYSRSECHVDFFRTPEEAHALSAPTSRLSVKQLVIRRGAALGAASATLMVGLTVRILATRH
# T8 sequence (Q9NPD5 whole entry): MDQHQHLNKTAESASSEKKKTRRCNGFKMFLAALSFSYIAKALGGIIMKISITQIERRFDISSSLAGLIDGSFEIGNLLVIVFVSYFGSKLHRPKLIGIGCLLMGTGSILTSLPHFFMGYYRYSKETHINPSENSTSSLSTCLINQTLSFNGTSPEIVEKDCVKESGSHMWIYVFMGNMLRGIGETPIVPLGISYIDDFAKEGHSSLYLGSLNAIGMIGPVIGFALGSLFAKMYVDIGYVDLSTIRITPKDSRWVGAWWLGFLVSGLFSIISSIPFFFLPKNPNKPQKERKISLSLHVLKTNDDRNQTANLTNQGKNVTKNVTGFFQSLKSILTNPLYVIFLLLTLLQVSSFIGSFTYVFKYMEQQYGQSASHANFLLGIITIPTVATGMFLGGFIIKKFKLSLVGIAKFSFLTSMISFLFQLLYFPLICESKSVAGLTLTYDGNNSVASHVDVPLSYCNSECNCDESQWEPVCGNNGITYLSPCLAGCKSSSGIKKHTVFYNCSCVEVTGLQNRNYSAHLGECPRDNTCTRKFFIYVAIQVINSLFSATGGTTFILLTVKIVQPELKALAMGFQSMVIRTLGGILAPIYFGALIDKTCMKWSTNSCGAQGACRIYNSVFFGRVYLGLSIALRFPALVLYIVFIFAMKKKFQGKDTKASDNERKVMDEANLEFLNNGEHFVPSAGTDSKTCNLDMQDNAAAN
compound,measurement,setting,value
Cc1[nH]c2nc(N)nc(C)c2c1-c1ccc(C#N)c2c1OCO2 [DNDI-6174],CC50,[1],> 37 µM
same,EC50,[2],5 to 20 µM
same,inhibition at 200 µM,[3],< 20%
same,solubility,"[4]; FaSSGF, pH 1.6, fassgf or other biorelevant, pH 1.6, read-out: Solubility FaSSGF",1200 µg/mL
same,solubility,"[4]; FaSSIF-V2, pH 6.5, fassif, pH 6.5, read-out: Solubility FaSSIF",11 µg/mL
same,solubility,"[4]; FeSSIF-V2, pH 5.8, fessif, pH 5.8, read-out: Solubility FeSSIF",54 µg/mL
same,Solubility FaSSGF,[4]; pH 1.6,1190 µg/mL
same,solubility,"[4]; phosphate buffered saline (PBS), pH 7.4, aqueous buffer, pH 7.4, read-out: Solubility PBS",6.5 µg/mL
same,AUC,"[5]; male, oral, 27 ug",460 µg·h/mL
same,AUC,[5]; 4 ug,60 µg·h/mL
same,clearance,"[5]; from in vitro predictions, read-out: expected plasma clearance in humans",~1 mL/min/kg
same,CC50,[6],> 80 µM
same,concentrations at which oxygen consumption was reduced,[7],≥ 66 µM
same,margin of MitoExpress no-effect concentration over free concentration at predicted human therapeutic plasma Cmax,[7],approximately 57 fold
same,maximum reduction of oxygen consumption,[7]; 200 μM (highest tested),28%
same,CC50,[8],> 63 µM
same,activity remaining,[9],> 50%
same,activity remaining,[10],> 50%
same,activity remaining,[11],> 50%
same,IC50,[12],22 µM
same,IC50,[13],0.88 µM
same,activity remaining,[14],> 50%
same,activity remaining,[15],> 50%
same,activity remaining,[16],> 50%
same,IC50,[17],16 µM
